This is an account of results in patent US10800781B2, “Compounds useful as inhibitors of ATR kinase” (Vertex Pharmaceuticals Incorporated, priority 2014, dated 2020).

For experiment [1], the system named is HCT116 colorectal cancer cells. Nature of the experiment: Cisplatin sensitization assay, 96 h cell viability (MTS). It counts as cell-based. The settings on record: compound and Cisplatin added simultaneously. The procedure:
Compounds can be screened for their ability to sensitize HCT116 colorectal cancer cells to Cisplatin using a 96 h cell viability (MTS) assay. […] Compounds and Cisplatin are then both added simultaneously to the cell media in 2-fold serial dilutions from a top final concentration of 10 μM as a full matrix of concentrations in a final cell volume of 200 μl, and the cells are then incubated at 37° C. in 5% CO2. After 96 h, 40 μl of MTS reagent (Promega G358a) is added to each well and the cells are incubated for 1 h at 37° C. in 5% CO2. Finally, absorbance is measured at 490 nm using a SpectraMax Plus 384 reader (Molecular Devices) and the concentration of compound required to reduce the IC50 of Cisplatin alone by at least 3-fold (to 1 decimal place) can be reported.

Another experiment concerns the target T1, full-length ATR (Homo sapiens, UniProt Q13535).
T1 construct: Assays are carried out at 25° C. in the presence of 5 nM full-length ATR
Nature of the experiment: ATR inhibition assay (radioactive-phosphate incorporation). It counts as biochemical. The conditions noted are these: 5 nM full-length ATR, 10 μM ATP, 800 μM target peptide, 25° C.; read-out: Ki values (Ki(app)) for inhibiting ATR. Here is the method: Compounds can be screened for their ability to inhibit ATR kinase using a radioactive-phosphate incorporation assay. Assays are carried out in a mixture of 50 mM Tris/HCl (pH 7.5), 10 mM MgCl2 and 1 mM DTT. Final substrate concentrations are 10 μM [γ-33P]ATP (3mCi 33P ATP/mmol ATP, Perkin Elmer) and 800 μM target peptide (ASELPASQPQPFSAKKK).
Assays are carried out at 25° C. in the presence of 5 nM full-length ATR. An assay stock buffer solution is prepared containing all of the reagents listed above, with the exception of ATP and the test compound of interest. 13.5 μL of the stock solution is placed in a 96 well plate followed by addition of 2 μL of DMSO stock containing serial dilutions of the test compound (typically starting from a final concentration of 15 μM with 3-fold serial dilutions) in duplicate (final DMSO concentration 7%). The plate is pre-incubated for 10 minutes at 25° C. and the reaction initiated by addition of 15 μL [γ-33P]ATP (final concentration 10 μM).
The reaction is stopped after 24 hours by the addition of 30 μL 0.1M phosphoric acid containing 2 mM ATP. […]
After removing mean background values for all of the data points, Ki(app) data are calculated from non-linear regression analysis of the initial rate data using the Prism software package (GraphPad Prism version 3.0cx for Macintosh, GraphPad Software, San Diego Calif., USA).

T1 sequence (Q13535 whole entry): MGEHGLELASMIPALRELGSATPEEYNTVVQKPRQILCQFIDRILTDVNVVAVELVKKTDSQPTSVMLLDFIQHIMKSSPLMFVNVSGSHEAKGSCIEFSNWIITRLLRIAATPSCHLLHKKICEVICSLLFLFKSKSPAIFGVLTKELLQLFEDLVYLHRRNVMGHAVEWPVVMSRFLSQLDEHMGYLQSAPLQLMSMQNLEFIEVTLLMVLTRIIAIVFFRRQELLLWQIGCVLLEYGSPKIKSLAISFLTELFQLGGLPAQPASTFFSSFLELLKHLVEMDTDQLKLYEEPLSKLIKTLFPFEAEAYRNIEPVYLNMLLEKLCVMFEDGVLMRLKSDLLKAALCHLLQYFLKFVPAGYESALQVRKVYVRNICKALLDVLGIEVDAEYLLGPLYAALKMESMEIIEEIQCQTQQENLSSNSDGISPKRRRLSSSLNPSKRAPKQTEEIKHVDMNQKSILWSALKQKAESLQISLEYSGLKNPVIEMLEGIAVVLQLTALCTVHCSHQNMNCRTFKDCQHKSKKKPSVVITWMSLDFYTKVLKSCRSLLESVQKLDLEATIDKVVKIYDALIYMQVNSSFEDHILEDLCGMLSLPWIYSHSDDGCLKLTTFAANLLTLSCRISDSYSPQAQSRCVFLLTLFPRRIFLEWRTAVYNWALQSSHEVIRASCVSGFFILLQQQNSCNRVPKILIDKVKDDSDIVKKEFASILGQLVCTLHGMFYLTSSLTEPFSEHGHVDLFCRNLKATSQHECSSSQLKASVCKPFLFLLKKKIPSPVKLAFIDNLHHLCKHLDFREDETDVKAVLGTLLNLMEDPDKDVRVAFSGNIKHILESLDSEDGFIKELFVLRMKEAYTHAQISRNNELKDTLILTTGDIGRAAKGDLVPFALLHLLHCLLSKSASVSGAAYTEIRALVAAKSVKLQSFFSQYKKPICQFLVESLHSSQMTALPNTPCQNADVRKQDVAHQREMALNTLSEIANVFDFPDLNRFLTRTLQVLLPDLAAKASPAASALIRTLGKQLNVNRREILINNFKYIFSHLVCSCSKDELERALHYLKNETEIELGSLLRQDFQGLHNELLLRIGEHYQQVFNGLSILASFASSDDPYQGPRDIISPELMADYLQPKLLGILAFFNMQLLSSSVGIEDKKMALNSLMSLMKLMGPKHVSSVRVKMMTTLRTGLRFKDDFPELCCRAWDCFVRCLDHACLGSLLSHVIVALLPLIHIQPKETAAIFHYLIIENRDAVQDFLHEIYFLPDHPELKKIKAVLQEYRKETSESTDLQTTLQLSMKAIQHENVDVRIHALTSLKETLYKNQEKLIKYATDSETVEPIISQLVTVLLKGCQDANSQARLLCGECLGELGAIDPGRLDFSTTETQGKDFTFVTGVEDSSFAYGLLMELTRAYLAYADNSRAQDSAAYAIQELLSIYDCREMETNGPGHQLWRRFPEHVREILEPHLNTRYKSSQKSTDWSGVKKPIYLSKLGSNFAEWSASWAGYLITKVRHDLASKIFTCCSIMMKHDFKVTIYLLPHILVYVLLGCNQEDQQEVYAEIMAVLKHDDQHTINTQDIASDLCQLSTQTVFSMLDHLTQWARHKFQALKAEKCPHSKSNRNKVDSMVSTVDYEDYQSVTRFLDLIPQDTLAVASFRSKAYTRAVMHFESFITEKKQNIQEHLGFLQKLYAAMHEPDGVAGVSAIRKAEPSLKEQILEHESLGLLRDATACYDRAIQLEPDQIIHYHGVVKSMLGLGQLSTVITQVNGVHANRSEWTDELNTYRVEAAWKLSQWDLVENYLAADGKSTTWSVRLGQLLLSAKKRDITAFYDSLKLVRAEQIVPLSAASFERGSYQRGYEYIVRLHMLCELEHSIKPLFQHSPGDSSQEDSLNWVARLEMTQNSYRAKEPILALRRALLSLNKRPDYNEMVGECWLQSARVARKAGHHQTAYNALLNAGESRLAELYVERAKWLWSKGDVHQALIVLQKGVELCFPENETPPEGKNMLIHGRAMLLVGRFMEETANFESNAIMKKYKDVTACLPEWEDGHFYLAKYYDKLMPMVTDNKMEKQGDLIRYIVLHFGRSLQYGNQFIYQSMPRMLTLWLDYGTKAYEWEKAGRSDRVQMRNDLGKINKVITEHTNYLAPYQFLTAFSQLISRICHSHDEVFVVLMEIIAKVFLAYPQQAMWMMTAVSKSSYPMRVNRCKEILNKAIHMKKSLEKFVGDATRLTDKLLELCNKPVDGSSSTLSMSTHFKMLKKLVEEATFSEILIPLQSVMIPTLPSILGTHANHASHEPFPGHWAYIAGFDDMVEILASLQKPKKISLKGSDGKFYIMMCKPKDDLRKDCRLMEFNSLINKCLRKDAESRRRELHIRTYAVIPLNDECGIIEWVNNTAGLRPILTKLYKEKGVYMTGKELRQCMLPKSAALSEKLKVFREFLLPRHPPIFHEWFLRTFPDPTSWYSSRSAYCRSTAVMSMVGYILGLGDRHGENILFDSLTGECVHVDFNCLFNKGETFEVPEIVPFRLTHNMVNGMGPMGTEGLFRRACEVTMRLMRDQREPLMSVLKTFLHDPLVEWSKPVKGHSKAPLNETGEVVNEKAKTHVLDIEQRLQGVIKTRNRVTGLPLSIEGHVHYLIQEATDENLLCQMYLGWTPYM

Regarding `Cn1cncc1-c1c(F)cncc1NC(=O)c1c(N)nn2cc(F)cnc12` [Compound I-1, 2-amino-6-fluoro-N-(5-fluoro-4-(1-methyl-1H-imidazol-5-yl)pyridin-3-yl)pyrazolo[1,5-a]pyrimidine-3-carboxamide], in experiment [1], the “Cisplatin sensitization values (concentration of compound required to reduce the IC50 of Cisplatin alone by at least 3-fold)” value was under 200 nM. Further, on full-length ATR, the Ki is under 1000 nM.
